Legend:
[1] = test system: T cell lines primed in vitro with Der p II; assay: T cell proliferation with fine map and modified Group II peptides (Example XIV); type: cell-based, human; details: for positive T cell responses, modified peptides: 21 T cell lines, Der p II primed, FIG. 32a; for T cell response, Group II peptides: FIGS. 32a-b
Experimental: (§1) Long term T cell lines were established by stimulation of 2×10^6 PBL/ml in bulk cultures of complete medium (RPMI-1640, 2 mM L-glutamine, 100 U/ml penicillin/streptomycin, 5×10^-5 M 2-mercaptoethanol, and 10 mM HEPES supplemented with 5% heat inactivated human AB serum) with 30 μg/ml of purified native Der p I or Der p II for 5-6 days at 37° C. in a humidified 5% CO2 incubator to select for house dust mite protein allergen reactive T cells. This amount of priming antigen was determined to be optimal for the activation of T cells from house dust mite allergic patients. Viable cells were purified by LSM centrifugation and cultured in complete medium supplemented with 5 units recombinant human IL-2/ml and 5 units recombinant human IL-4/ml for up to three weeks until the cells no longer responded to lymphokines and were considered "rested". The ability of the T cells to proliferate to selected peptides, purified Der p I or Der p II, or positive (PHA) controls or negative controls (medium only) was then assessed. For assay, 2×10^4 rested cells were restimulated in the presence of 2×10^4 autologous Epstein-Barr virus (EBV)-transformed B cells (prepared as described below) (gamma-irradiated with 25,000 RADS) or with 5×10^4 autologous PBMs (gamma-irradiated with 3500 RADS), with 2-50 μg/ml of purified native Der p I or Der p II in a volume of 200 μl complete medium in duplicate or triplicate wells in 96-well round bottom plates for 3 days. Each well then received 1 μCi tritiated thymidine for 16-20 hours. The counts incorporated were collected onto glass fiber filter mats and processed for liquid scintillation counting. […] The titrations were used to optimize the dose of peptides in T cell assays.
(§2) The maximum response in a titration of each peptide is expressed as the stimulation index (S.I.). The S.I. is the counts per minute (CPM) incorporated by cells in response to peptide, divided by the CPM incorporated by cells in medium only. […] The positive results were used in calculating mean stimulation indices for each peptide for the individual patient tested.
(§3) The above procedure was followed with 18 patients in the studies using peptides derived from Der p I and Der f I (FIGS. 31a-b), and 21 patients in the studies with Der p II peptides (FIGS. 32a-b). Individual patient results were used in calculating the mean S.I. for each peptide if the patient responded to the Der p I or Der p II protein at an S.I. of 2.0 or greater and the patient responded to at least one peptide derived from a house dust mite allergen at an S.I. f 2.0 or greater. A summary of positive experiments from the patients tested is shown in FIGS. 32a and 32b and FIGS. 33a and 33b. The bars represent the positivity index. […] In parenthesis above each bar are the mean stimulation indices for each peptide or protein for the group of patients tested.
(§4) Autologous EBV-transformed cell lines were γ-irradiated with 25,000 Rad and used as antigen presenting cells in secondary proliferation assays and secondary bulk stimulations. These EBV-transformed cell lines were made by incubating 5×10^6 PBL with 1 ml of B-59/8 Marmoset cell line (ATCC CRL1612, American Type Culture Collection, Rockville, Md.) conditioned medium in the presence of 1 μg/ml phorbol 12-myristate 13-acetate (PMA) at 37° C. for 60 minutes in 12×75 mm polypropylene round-bottom Falcon snap cap tubes (Becton Dickinson Labware, Lincoln Park, N.J.). These cells were then diluted to 1.25×10^6 cells/ml in RPMI-1640 as described above except supplemented with 10% heat-inactivated fetal bovine serum and cultured in 200 μl aliquots in flat bottom culture plates until visible colonies were detected. They were then transferred to larger wells until the cell lines were established.

human IgE = assay: direct binding ELISA of IgE to mite allergen proteins and peptides; details: plasma of 19 mite-allergic patients and pool of 18; Example XV
Experimental: The coating antigens were removed and the wells are blocked with 0.5% gelatin in PBS, 300 μl/well for 2 hours at room temperature. Pooled human plasma (a mix of plasma samples from 20 patients that were skin test positive for commerical mite extract) was serially diluted with PBS-Tween 20 (PBS with 0.05% nonionic detergent Tween-20 Sigma, St. Louis, Mo.) and 100 μl/well a.backslash.was added and incubated overnight at 4° C. (plasma dilutions were tested in duplicate). The second antibody (biotinylated goat anti-Human IgE, 1:1000, Kirkegaard & Perry Laboratories Inc, Gaithersburg, Md.), was added at 100 μl/well for one hour at room temperature. This solution was removed and streptavidin-HRPO, 1:10000, (Southern Biotechnology Associates, Inc., Birmingham, Ala.) was then added at 100 μl/well for one hour at room temperature (all wells are washed three times with PBS-Tween between each incubation step). TMB Membrane Peroxidase Substrate system (Kirkegaard & Perry Laboratories) was freshly miced, and added at […]. The color was allowed to develop for 2-5 minutes. The reaction was stopped by the addition of […] of 1M phosphoric acid. Plates were read on a Microplate IL310 Autoreader (Biotech Instruments, Winooski, Vt.) with a 450 nm filter. The absorbance levels of duplicate wells were averaged. The order of coating antigens listed vertically in these figure legends corresponds in orDer from left to right to the coating antigens listed for each histogram.
The antigen preparation that was used as a positive control was a mixture of the four major biochemically purified mite allergens (term PMA for Purified Mite Allergen); Der f I, Der f II, Der p I and Der p II. The stock was generated at a concentration of 100 μgs of each protein per millimeter or 400 μgs total protein/ml. This preparation was used on each coated ELISA plate.

[2] = test system: T cell lines primed in vitro to Der p I; assay: secondary proliferation of Der p I-primed T cell lines (Examples V, VII, XI); type: cell-based, human; details: for T cell response to selected Der p I peptides: 33 positive experiments, FIG. 13; for positivity index (P.I.): mean S.I. × percent responders, 33 patients
Experimental: 10^7 PBMC from individual 543 were cultured in 10 ml RPMI-1640 containing 5% pooled human AB serum and supplemented with glutamine, penicillin, streptomycin and HEPES buffer in the presence of 20 μg/ml purified native Der p I/ml at 37° C. for 7 days. Viable cells were then purified by Ficoll-Hypaque centrifugation and cultured for 2 additional weeks in RPMI-1640/5% AB serum containing 5 units recombinant human IL-2/ml and 5 units recombinant human IL-4/ml. The resting T cells were then tested in a secondary proliferation assay to assess T cell responses to various house dust mite proteins and peptides. For assay, 2×10^4 resting T cells were cultured in 200 μl of RPMI-1640/5% AB serum for 3 days at 37° C. in the presence of 2×10^4 autologous Epstein-Barr virus transformed B cells (20,000 Rads) as antigen presenting cells with various concentrations of purified native Der p I or synthetic Der p I peptides. Each well then received 1 μCi tritiated thymidine for 16 hours. The counts incorporated were collected onto glass fiber filters and processed for liquid scintillation counting. Medium alone, acting as negative control, contained no allergen or peptide. The results of this experiment indicate that this particular patient responds with an S.I. of at least 2.0 to several peptides derived from the Der p I protein, including DP I-1, DP I-2, DP I-4, DP I-11, DP I-5, DP I-13, DP I-15, DP I-6.1, DP I-8, DP I-9, DP I-16, DP I-10 and DP I-17 (data not shown).
The above procedure was followed with a number of other house dust mite allergic individuals except a) in individual cases, the length of time of cultivation with IL-2 and IL-4 varied; b) in individual cases, the T cells were primed with either purified native (N) or recombinant (R) Der p I protein at either 20 μg/ml or 10 μg/ml; and c) in individual cases, x-irradiated (3500 Rads) autologous PBMC were used as antigen presenting cells in the secondary proliferation assay.
Individual results were considered positive and used if the individual responded to the Der p I protein and at least one peptide derived from Der p I at an S.I. of 2.0 or greater. The resting T cell lines primed with recombinant or native Der p I-stimulated PBMC were tested for reactivity to synthetic Der p I peptides. The maximum response for each peptide in a titration of the antigen is expressed as the T cell stimulation index (S.I.). The S.I. is the counts-per-minute (CPM) incorporated by cells in response to the peptide divided by the CPM incorporated by cells in medium only. […] However, only individual S.I. values greater than or equal to 2.0 (a response two-fold or greater over background), referred to herein as "positive" results, were used in calculating mean T cell stimulation indices for each peptide for the patient or group of patients tested. […] The T cell stimulation index is calculated by: [formula]
The bar represents the cumulative rank of the peptide response in the group of patients. To determine the cumulative rank, the 5 peptides with the highest S.I. in each individual were determined and assigned a numerical rank in descending order, with 5 representing the strongest response. The ranks for each peptide were then summed in the group of patients to determine the cumulative rank for the peptide. […] Given the percent positive and the mean T cell stimulation index, the positivity index (P.I.) for each peptide can be calculated.
The Der p I and Der f I proteins are very homologous (81% identity). Thus, experiments, similar to those of Example V, were carried out to determine the T cell responses of Der p I primed T cell lines when challenged with various Der p I peptides and substantially matching […].
The results of T cell studies using selected peptides derived from the Der p I, the Der f I, the Der p II and the Der f II proteins are shown in FIGS. 13-18a-d. […]

[3] = test system: T cell lines primed in vitro with Der p I; assay: T cell proliferation with fine map and modified Group I peptides (Example XIV); type: cell-based, human; details: FIGS. 31a-b
Experimental: as §1, §2, §3, §4

| Substance | positive T cell responses, modified peptides [1] | T cell response, Group II peptides [1] | IgE binding (ELISA), modified peptides (human IgE) | T cell response, Group I peptides [3] | also measured |
| --- | --- | --- | --- | --- | --- |
| DP II-22.23: DKELEAVFEANQNTKTAKIED | all 21 T cell lines responded positively | positive T cell studies | No plasma samples contained IgE |  |  |
| DP II-22.22: DKELEAVFEANQNTKTAKIEIKK | all 21 T cell lines responded positively | positive T cell studies | No plasma samples contained IgE |  |  |
| DP I-23.1: Der p I peptide (EYIQHNGVVQESYYRYVAREQCRRPNAQ) |  |  |  | positive T cell studies | T cell response to selected Der p I peptides [2]: respond significantly; ranked sum of peptide responses ([2]; FIG. 15b, preferred peptides): highest ranked sum; positivity index (P.I.) [2]: at least 150 |
| DP II-20.8: modified Der p II peptide (DQVDVKDCANHEIKKVLVPGCHGSEPK) | all 21 T cell lines responded positively |  | No plasma samples contained IgE |  |  |
| DP II-22.19: DKELEAVFEANQNTKTAKIEIKAD | all 21 T cell lines responded positively | positive T cell studies | No plasma samples contained IgE |  |  |
| DP II-20.10: modified Der p II peptide (DQVDVKDCANHEIKKVLVPGCHGSEG) | all 21 T cell lines responded positively | positive T cell studies | No plasma samples contained IgE |  |  |
| DP II-25.9: modified Der p II peptide (DKTVKVMGDDGVLACAIATHAKIRDKE) | all 21 T cell lines responded positively | positive T cell studies | No plasma samples contained IgE |  |  |
| DP I-21.1: Der p I peptide (TNACSINGNAPAEIDLRQMRTVTPIRMQ) |  |  |  | positive response | T cell response to selected Der p I peptides [2]: respond significantly; positivity index (P.I.) [2]: at least 150 |
| DF I-22.4: Der f I peptide (VAATESAYLAYRNTSLDLSEQELVDCASQ) |  |  |  | positive responses | T cell response to selected Der f I peptides ([2]; Der p I primed, 30 positive experiments, FIG. 15a): respond significantly |
| DP II-20.11: modified Der p II peptide; printed with the same SEQ ID NO as DP II-20.9 (DQVDVKDCANHEIKKVLVPGCHGSE) | all 21 T cell lines responded positively | positive T cell studies | No plasma samples contained IgE |  |  |
| DP I-22.4: Der p I peptide (VAATESAYLAHRNQSLDLAEQELVDCASQ) |  |  |  | positive responses |  |
| DP I-26.1: Der p I peptide (IIGIKDLDAFRHYDGRTIIQRDNGYQ) |  |  |  | positive T cell studies | T cell response to selected Der p I peptides [2]: respond significantly; positivity index (P.I.) [2]: at least 150 |
| DP I-11.1: Der p I peptide, native sequence (HRNQSLDLAEQELVDCASQHGC) |  |  |  | positive response | difference in mean S.I. or percentage of positive responses, original vs additional (native sequence) peptides ([2]; DP I-11/12 vs DP I-11.1/12.1): no significant difference |

From patent publication US5968526A, “T cell epitopes of the major allergens from Dermatophagoides (house dust mite)” (Immulogic Pharamaceutical Corporation, priority 1995, dated 1999)
